Where two headings read alike, the source gives them in different places.
Experiments:
[1] = biological target: T1, SIRT7 (Homo sapiens, UniProt Q9NRC8); test: Fluor de Lys (FDL) SIRT7 deacetylase assay; assay type: biochemical
T1 construct: His-tagged full length SIRT7 protein expression from BL21 bacterial cells; His; made in house; host or cells: E. coli BL21
T1 sequence (Q9NRC8 1-400): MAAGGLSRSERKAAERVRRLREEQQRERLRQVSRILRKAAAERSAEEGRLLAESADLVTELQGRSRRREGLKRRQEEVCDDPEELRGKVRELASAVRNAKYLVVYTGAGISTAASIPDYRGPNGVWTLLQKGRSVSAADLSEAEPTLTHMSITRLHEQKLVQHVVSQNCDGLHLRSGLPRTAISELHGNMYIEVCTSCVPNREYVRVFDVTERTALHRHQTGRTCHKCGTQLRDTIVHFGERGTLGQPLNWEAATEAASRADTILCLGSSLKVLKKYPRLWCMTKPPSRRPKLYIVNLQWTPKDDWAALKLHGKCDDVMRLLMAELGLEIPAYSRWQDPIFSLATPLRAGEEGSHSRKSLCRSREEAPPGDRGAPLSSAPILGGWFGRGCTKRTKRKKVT
Description: To assess SIRT7 deacetylase activity using Fluor de Lys (FDL) assays, the peptide […]∗QLAGGK was synthesized and characterized as a substrate using fluorophore 7-methoxycoumarin-4-acetic acid (∗, MCA) (Figures 1A, S1A, and S1B). In the presence of both SIRT7 and NAD^+, a luminescence response was detected in the linear range (y = 31.88x + 2396, R^2 = 0.9742) (Figure 1B). We screened our preserved library of 242 natural products to find potential SIRT7 inhibitors.
For in vitro analysis of SIRT7 deacetylation, the reaction system contained 10 μg His-SIRT7, 0.5 mM NAD^+, 10 μM […](MCA)QLAGGK (synthesized by QYAOBIO; details in the supplementary files), 50 μM potential compound or 3 mM NAM, and assay buffer (10 mM Tris-HCl pH 8.0, 4 mM MgCl2, 0.2 mM DTT and 10% Glycerol). The deacetylation reactions were incubated at 37°C for 90 min. The fluorescence intensity was measured with a microplate reader (Synergy H4 Hybrid Reader, Biotek) at an excitation wavelength of 260 nm and detected at an emission spectrum of 300–600 nm. The IC50 values were calculated at 450 nm emission by GraphPad Prism 8.

[2] = tested on: SIRT1/2/3/5/6; test: Sirtuin deacetylation assay (fluorometric ELISA kit), other sirtuins; assay type: biochemical, human; conditions: different concentrations
Description: To determine the selectivity of YZL-51N, we assessed its inhibitory activity against recombinant human sirtuins expressed in E. coli through deacetylation assays in vitro (Figures 2A and 2B). […] We next validated the direct interaction between YZL-51N and SIRT1/2/6/7 using bio-layer interferometry (BLI) assays to compare their binding affinities. […] To gain insights into the ability of YZL-51N to affect sirtuin thermostability, we conducted protein thermal shift assays. At a concentration of 10 μM, YZL-51N caused shifts in the melting curves for SIRT7, SIRT6 and SIRT1 of 2.86°C, 1.0°C and 0.45°C (Figures S7A–S7C). In addition, we observed a dose-dependent increase in the ΔTm for SIRT7 following YZL-51N treatment (Figures 2F and 2G). Taken together, these findings confirm that YZL-51N is a selective inhibitor of SIRT7.
Deacetylase activity of 10 μg purified SIRT proteins was assessed using the Sirtuin Activity Assay Kit (BioVision, Cat#K324-100, USA) according to the manufacturer’s instructions. The fluorescence intensity (Ex/Em = 400/505 nm) was measured using a microplate reader (Synergy H4 Hybrid Reader, Biotek) in the end-point mode.

[3] = biological target: T2, SIRT1 (Homo sapiens, UniProt Q96EB6); test: Protein thermal shift assay; assay type: binding; conditions: 10 μM
T2 construct: GST-SIRT1-193-741; GST; purchased Active Motif 7846-50; host or cells: E. coli
T2 sequence (Q96EB6 193-741): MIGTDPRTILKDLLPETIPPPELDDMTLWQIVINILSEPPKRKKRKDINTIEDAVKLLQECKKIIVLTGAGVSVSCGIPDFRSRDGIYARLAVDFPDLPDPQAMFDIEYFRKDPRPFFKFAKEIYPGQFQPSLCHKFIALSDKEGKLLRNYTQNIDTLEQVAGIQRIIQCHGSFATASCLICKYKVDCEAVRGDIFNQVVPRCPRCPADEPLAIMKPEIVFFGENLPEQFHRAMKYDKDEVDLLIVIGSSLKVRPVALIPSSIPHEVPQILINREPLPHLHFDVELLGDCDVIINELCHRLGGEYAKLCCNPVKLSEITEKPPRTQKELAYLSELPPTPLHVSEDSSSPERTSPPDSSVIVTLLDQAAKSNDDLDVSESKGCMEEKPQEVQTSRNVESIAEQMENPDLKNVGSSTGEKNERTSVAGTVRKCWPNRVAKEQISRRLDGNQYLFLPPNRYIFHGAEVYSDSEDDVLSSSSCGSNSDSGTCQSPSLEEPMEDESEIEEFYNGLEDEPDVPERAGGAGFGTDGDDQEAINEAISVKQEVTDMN
Description: (§1) The mixture containing SIRT1, SIRT6 or SIRT7 proteins, SYPRO Orange, compounds and buffer (100 mM Tris-HCl, 40 mM NaCl, 10 mM MgCl2, pH=7.4) were added into 0.2 mL PCR tubes for a total volume of 20 μL and placed in an ABI ViiA 7 Real-time PCR System. The temperature ranging from 35.0 to 75.0°C was increased at a rate of 0.5°C/s and the fluorescence intensity was monitored in the ROX channel.

[4] = biological target: SIRT6 (Homo sapiens, UniProt Q8N6T7); test: Protein thermal shift assay; assay type: binding; conditions: 10 μM
Chain of SIRT6 (Q8N6T7 whole entry): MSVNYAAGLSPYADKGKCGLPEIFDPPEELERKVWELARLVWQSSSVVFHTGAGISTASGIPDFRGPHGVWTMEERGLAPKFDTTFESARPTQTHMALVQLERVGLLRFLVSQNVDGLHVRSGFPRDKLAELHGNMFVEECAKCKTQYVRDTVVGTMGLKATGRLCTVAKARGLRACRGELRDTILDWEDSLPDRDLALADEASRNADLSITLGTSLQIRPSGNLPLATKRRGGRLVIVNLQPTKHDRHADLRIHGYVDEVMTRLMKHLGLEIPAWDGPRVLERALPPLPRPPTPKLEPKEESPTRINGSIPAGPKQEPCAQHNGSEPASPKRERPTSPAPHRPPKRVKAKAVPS
Description: as §1

[5] = biological target: T1, SIRT7; test: Protein thermal shift assay; assay type: binding; conditions: 10 μM
Description: as §1

[6] = biological target: T1, SIRT7; test: Surface plasmon resonance (SPR) binding assay
Description: All SPR measurements were performed on Biacore T200 instrument (GE Healthcare) with running buffer (PBS+5% DMSO) at room temperature. The bacterially purified His-SIRT7 was covalently immobilized onto Series S Sensor Chip CM5 by a standard amino-coupling procedure in 10 mM sodium acetate (pH 5.5). Two-fold serial dilutions of YZL-51N or NAD^+ in 5% DMSO passed through the sensor chip at 30 μL/min for 120 s, followed by 240 s of dissociation flow. The KD value was calculated based on the concentration dependence of the observed steady-state response using Biacore T200 Evaluation software Version 1.0 (GE Healthcare).

[7] = tested on: HCT116 cells
Description: Cells were seeded into 96 well plates (4,000 cells/well). […] The cells were then washed and re-cultured in fresh medium for 48 h. […] Formazan were generated by the addition of 100 μL DMSO and shaking for 30 min. The absorbance of samples was measured at 570 nm using a microtiter plate reader (BioTek).

In the case of `COC(=O)/C(=C\C(=O)c1ccc(O)c(O)c1)c1ccc(O)c(O)c1` [YZL-51N], the inhibition at 50 µM ([1]; 50 μM compound, 37°C, 90 min) is reported as 71.1%, the IC50 ([1]; 0.5 mM NAD+, 10 μM peptide, read-out: FDL assay SIRT7 inhibition IC50) is reported as 12.7 µM and the “Inhibition of deacetylase activities of other sirtuins” value [2] is reported as “did not inhibit”. The “Shift in the melting curve” value [3] was 0.45 °C, the “Shift in the melting curve” value [4] was 1.0 °C and the “Shift in the melting curve” value [5] was 2.86 °C. The “disassociation rate (koff)” value [6] was 0.0006315 s⁻¹, the Kd ([6]; immobilized His-SIRT7) was 1020 nM and the kon ([6]; read-out: association rate (kon)) was 618 M⁻¹ s⁻¹. For the same compound, the “Cell proliferation (%, Mean ± SD)” value ([7]; single agent 5 μM) was 94.8 ± 5.0%, the “Cell proliferation (%, Mean ± SD)” value ([7]; single agent 10 μM) was 86.9 ± 5.7% and the “Cell proliferation (%, Mean ± SD)” value ([7]; single agent 20 μM) was 76.4 ± 6.0%. The “Cell proliferation (%, Mean ± SD)” value ([7]; single agent 40 μM) was 42.8 ± 4.8%, the “Cell proliferation (%, Mean ± SD)” value ([7]; single agent 80 μM) was 29.9 ± 5.4% and the “Cell proliferation (%, Mean ± SD)” value ([7]; single agent 160 μM) was 17.7 ± 5.3%.

Source: publication PMC11214487, “YZL-51N functions as a selective inhibitor of SIRT7 by NAD^+ competition to impede DNA damage repair” (iScience, 2024)
